Data taken from patent publication US8246985B2, “Pharmaceutical composition comprising lipase inhibitor and lipophilic oil absorbent and oral formulation prepared therefrom” (Amorepacific Corporation, priority 2006, dated 2012).

Assay: Oil adsorption test for selection of lipophilic oil absorbent
Format: physicochemical
Details: for Amount of remained oil: 1.5 g substance (0.1 g hydroxypropyl methyl cellulose and polyethylene oxide, 0.5 g light anhydrous silicic acid), 5 g soybean oil, 15 g purified water, mixed 2 min, centrifuged 3,000 g 5 min, weight of supernatant oil layer; for Adsorption (%): ratio of oil adsorbed (dispersants: oil within dispersing layer) to total oil amount (5 g)
Protocol: In order to select a lipophilic oil absorbent that is capable of adsorbing unabsorbed free oil by the action of a lipase inhibitor, various substances known as a dispersant or adsorbent were subjected to an adsorption test as follows. 1.5 g of each ingredient listed in Table 1 (excepted for 0.1 g of each of hydroxypropyl methyl cellulose and polyethylene oxide, 0.5 g of light anhydrous silicic acid), 5 g of soybean oil and 15 g of purified water were mixed in a test tube for 2 minutes and centrifuged at 3,000 g for 5 minutes. After separating the supernatant oil layer, the oil adsorption degree of each substance was determined.
In table 1, the amount of oil remained was measured from the weight of the oil layer after adsorption, and the adsorption (%) means the ratio of the amount of oil adsorbed (which is obtained by subtracting the remained oil amount from the total oil amount) to the total amount of oil. On using a dispersant, the amount of oil remained means the oil amount of a supernatant excepting oil dispersed layer, and the adsorption (%) means the ratio of the oil amount within the dispersing layer to the total oil amount (5 g).

Row | Molecule | Amount of remained oil [g] | Adsorption (%) | Adsorption (%) (sulfate)
1 | Sorbitan trioleate | 0.17 | 1.13 | 
2 | CCCCCCCCCCCCOS(=O)(=O)[O-].[Na+] [Sodium lauryl sulfate] | 0.00 |  | 100
3 | Polyoxyethylene(2) cetyl ether | 2.79 | 2.79 | 
